Test results: patent publication US6906046B2 (Celltech R & D Inc., priority 2000, dated 2005)
Where two headings read alike, the source gives them in different places.

Assays:
NFκB = NFκB luciferase reporter assay in TNF-α stimulated A549 cells (E-selectin promoter); assay type: cell-based; details: % inhibition or IC50 in μM; for IC50: Homo sapiens
Method: A549 cells were stably transfected with an E-selectin promoter containing three NFκB binding sites driving luciferase expression. For the assay, 5×10^4 cells were incubated in 96 well round bottom plates overnight in 100 μL of 10% FBS/RPMI medium at 37° C. in a 5% CO2 atmosphere. The following morning the medium was removed and 90 μL of a 1% DMSO solution of test compound solution was added and the plates incubated for 1 hour. 10 μL of TNF-α was added at its EC50 (normally 6 ng/mL FAC) to each well and the plate incubated for 5 hours. 100 μL of luciferase buffer was added, and after 10 minutes luminescence was read on a Wallac Victor 1420 Multilabel Counter. The data obtained from the Wallac Victor was converted into % inhibition data or IC50 measured in μM.

CXCR1 = target: T1, CXCR1 (Homo sapiens, UniProt P25024); assay: CXCR1 radioligand binding assay with 125I labeled IL-8; details: human recombinant CHO cells; for IC50: percent inhibition or IC50, read-out: CXCR1 inh.; for CXCR1 inh.: percent inhibition or IC50
T1 construct: host or cells: CHO cells
T1 sequence (P25024 1-350): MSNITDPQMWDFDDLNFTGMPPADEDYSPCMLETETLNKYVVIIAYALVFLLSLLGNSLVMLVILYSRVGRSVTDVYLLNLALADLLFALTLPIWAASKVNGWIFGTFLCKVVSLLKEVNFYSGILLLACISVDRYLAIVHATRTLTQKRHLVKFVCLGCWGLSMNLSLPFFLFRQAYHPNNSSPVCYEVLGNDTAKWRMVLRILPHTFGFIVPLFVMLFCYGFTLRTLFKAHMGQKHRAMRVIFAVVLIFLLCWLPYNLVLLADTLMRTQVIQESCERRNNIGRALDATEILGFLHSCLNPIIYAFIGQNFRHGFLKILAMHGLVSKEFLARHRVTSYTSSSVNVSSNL
From the text: (§1) This assay is a radioligand binding assay in human recombinant CHO cells with ^125I labeled IL-8 as the ligand. The assay procedure is described in Ahuja, S. K.; Murphy, P. M;.

CXCR2 = target: T2, CXCR2 (Homo sapiens, UniProt P25025); assay: CXCR2 radioligand binding assay with 125I labeled IL-8; details: human recombinant CHO cells; for IC50: percent inhibition or IC50, read-out: CXCR2 2 inh.; for CXCR2 2 inh.: percent inhibition or IC50
T2 construct: host or cells: CHO cells
T2 sequence (P25025 1-360): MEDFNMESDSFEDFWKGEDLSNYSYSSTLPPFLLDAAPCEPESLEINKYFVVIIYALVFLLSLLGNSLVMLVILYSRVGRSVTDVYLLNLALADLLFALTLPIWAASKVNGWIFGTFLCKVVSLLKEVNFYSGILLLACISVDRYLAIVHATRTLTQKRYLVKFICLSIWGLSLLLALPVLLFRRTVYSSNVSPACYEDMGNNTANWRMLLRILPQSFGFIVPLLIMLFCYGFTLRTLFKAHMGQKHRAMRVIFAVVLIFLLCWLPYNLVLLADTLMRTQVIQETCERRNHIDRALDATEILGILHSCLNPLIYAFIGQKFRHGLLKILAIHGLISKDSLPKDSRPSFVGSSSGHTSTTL
From the text: as §1

A549 cells = assay: Inhibition of TNF-α induced apoptosis in A549 cells (crystal violet); assay type: cell-based; details: Homo sapiens, percent inhibition at 20 μM or IC50 in μM
Method: The protocol used for determining inhibition of apoptosis in A549 cells was adopted from a system previously described (K. Last-Barney et al., J. of Immunology 141:527-530, 1988). Briefly, 10^5 cells in 200 μL 10% FBS/RPMI antibiotic containing culture medium were plated into 96 well round bottom culture plates and allowed to adhere for 6 hours at 37° C. in a 5% CO2 atmosphere. The media was removed and 100 μL of RPMI+1 μg/mL actinomycin-D was added to each well, followed by 90 μL of test compound solution in 1% DMSO. This was incubated for 1 hour 10 AL TNF-α was added at its EC50 (normally 1 ng/mL FAC) and the plates incubated for 18 hours. The media was aspirated from the plates and 100 μL of 0.5% crystal violet in 20% methanol was added. After 10 minutes the plates were rinsed with water to remove excess stain, air dried, and read on a Spectramax at a wavelength of 590 nm. The data obtained from the Spectramax was converted into percent inhibition data at a concentration of 20 μM or IC50 measured in μM.

[1] = TNF-α stimulated A549 cells, E-selectin promoter luciferase, given as class symbols, read-out: NFκB inh
[2] = A549 cells with NFκB luciferase reporter, TNF-α at its EC50, 5 hours
[3] = inhibition of TNF-α induced apoptosis in A549 cells, given as class symbols, read-out: Apopt inh

Structure (SMILES) | IC50 (NFκB; [1]) | IC50 (A549 cells; [3]) | other results
CCCOC(=O)[C@@H]1C2C(=O)CC(c3ccc(O)cc32)[C@H]1C(=O)OCCC[Si](C)(C)C (stereo partly drawn) [Example 109] | 10 to 50 µM | – | –
CCCOC(=O)[C@H]1[C@H](C(=O)OCC[Si](C)(C)C)C2C/C(=N\OCC(=O)N3CCN(c4ccccc4)CC3)[C@H]1c1cc(O)ccc12 (stereo in doubt) [Example 73] | 10 to 50 µM | – | –
CCCNC1CC2c3ccc(O)cc3[C@H]1[C@@H](C(=O)OCCC)[C@@H]2C(=O)OCC[Si](C)(C)C (stereo partly drawn) [Example 85] | 10 to 50 µM | – | –
CCCOC(=O)[C@H]1[C@H](C(=O)OCC[Si](C)(C)C)C2CC(C)(O)[C@H]1c1cc(O)ccc12 (stereo partly drawn) [Example 99] | 10 to 50 µM | – | –
CCCOC(=O)[C@H]1[C@H](C(=O)OCC[Si](C)(C)C)C2CC(N(C)C(C)=O)[C@H]1c1cc(O)ccc12 (stereo partly drawn) [Example 94] | 10 to 50 µM | – | –
CCCOC(=O)[C@H]1[C@H](C(=O)OCC[Si](C)(C)C)C2C/C(=N/OCC(=O)N3CCN(c4ccccc4)CC3)[C@H]1c1cc(O)ccc12 [Example 74] | 10 to 50 µM | – | –
CCCOC(=O)C1C(C(=O)OCC[Si](C)(C)C)C2C/C(=N\Nc3ccccc3Br)[C@H]1c1cc(O)ccc12 (stereo partly drawn) [Example 112] | – | – | NFkB inh. (NFκB; [2]): * (refers to percent inhibition from 6% to 64%); IC50 (CXCR1): 10 to 50 µM; IC50 (CXCR2): < 10 µM
CCCOC(=O)[C@H]1[C@H](C(=O)OCC[Si](C)(C)C)C2CC(O)[C@H]1c1cc(O)ccc12 (stereo partly drawn) [Example 82] | 10 to 50 µM | < 10 µM | –
CCCOC(=O)[C@H]1[C@H](C(=O)OCC[Si](C)(C)C)C2CC(NC)[C@H]1c1cc(O)ccc12 (stereo partly drawn) [Example 86] | 10 to 50 µM | – | –
CCCOC(=O)[C@@H]1C2C(=O)CC(c3ccc(O)cc32)[C@H]1C(=O)OCCC12CC3CC(CC(C3)C1)C2 (stereo partly drawn) [Example 108] | 10 to 50 µM | – | –
CCCOC(=O)[C@H]1[C@H](C(=O)OCCC(C)(C)C)C2CC(=O)[C@H]1c1cc(O)ccc12 [Example 107] | 10 to 50 µM | – | –
CCCOC(=O)[C@H]1[C@H](C(=O)OCC[Si](C)(C)C)C2CC(O)(CO)[C@H]1c1cc(O)ccc12 (stereo partly drawn) [Example 102] | – | – | inhibition at 20 µM (A549 cells; [3]): 6 to 64%
CCCOC(=O)C1C(C(=O)OCC[Si](C)(C)C)C2C[C@H](Nc3ccccc3)[C@H]1c1cc(O)ccc12 (stereo partly drawn) [Example 114] | – | – | NFkB inh. (NFκB; [2]): * (refers to percent inhibition from 6% to 64%); CXCR2 2 inh. (CXCR2): * (refers to percent inhibition from 10-36%)
CCCOC(=O)[C@H]1[C@H](C(=O)OCC[Si](C)(C)C)C2C/C(=N\OCc3cccc(F)c3)[C@H]1c1cc(O)ccc12 (racemic) [Example 72, 11-(3-Fluoro-benzyloxyimino)-4-hydroxy-tricyclo[6.2.2.0^2,7]dodeca-2(7),3,5-triene-9,10-dicarboxylic acid 10-propyl ester 9-(2-trimethylsilanyl-ethyl) ester] | – | < 10 µM | –
CCCOC(=O)[C@H]1[C@H](C(=O)OCCS(=O)(=O)c2ccc(C)cc2)C2CC(=O)[C@H]1c1cc(O)ccc12 [Example 106] | 10 to 50 µM | – | –
COc1ccc(COC(=O)[C@H]2[C@H](C(=O)OCC[Si](C)(C)C)C3CC(O)[C@H]2c2cc(O)ccc23)c(OC)c1 (stereo partly drawn) [Example 95] | – | – | inhibition at 20 µM (A549 cells; [3]): 6 to 64%
CCCOC(=O)C1C(C(=O)OCC[Si](C)(C)C)C2C/C(=N\Oc3ccccc3)[C@H]1c1cc(O)ccc12 (stereo partly drawn) [Example 116] | – | – | IC50 (A549 cells; A549 cells, actinomycin-D + TNF-α at its EC50, 18 hours, read-out: Apopt. Inh.): < 10 µM; IC50 (NFκB; A549 cells with NFκB luciferase reporter, TNF-α at its EC50, 5 hours, read-out: NFkB inh.): 10 to 50 µM; CXCR1 inh. (CXCR1): * (refers to percent inhibition from 10-36%); CXCR2 2 inh. (CXCR2): * (refers to percent inhibition from 10-36%)

Structure (SMILES) | IC50 (NFκB; [1]) | IC50 (A549 cells; [3]) | other results
CCCOC(=O)[C@H]1[C@H](C(=O)OCC[Si](C)(C)C)C2C/C(=N\NS(=O)(=O)c3ccccc3)[C@H]1c1cc(O)ccc12 [Example 58] | – | 10 to 50 µM | –
CCCOC(=O)[C@H]1[C@H](C(=O)OCC[Si](C)(C)C)C2C/C(=N\NC(=S)NC)[C@H]1c1cc(O)ccc12 [Example 81] | – | < 10 µM | –
COc1ccc(COC(=O)[C@H]2[C@H](C(=O)OCC[Si](C)(C)C)C3CC(O)[C@H]2c2cc(O)ccc23)c(OC)c1 (stereo partly drawn) [Example 96] | – | < 10 µM | –
CCCOC(=O)[C@H]1[C@H](C(=O)OCC[Si](C)(C)C)C2CC(N(C)C(C)=O)[C@H]1c1cc(OC(C)=O)ccc12 (stereo partly drawn) [Example 92] | 10 to 50 µM | – | –
CCCOC(=O)[C@H]1[C@H](C(=O)OCC[Si](C)(C)C)C2CC(=CC(=O)OCC)[C@H]1c1cc(O)ccc12 [Example 98] | – | – | inhibition at 20 µM (A549 cells; [3]): 6 to 64%
CCCOC(=O)[C@H]1[C@H](C(=O)OCC[Si](C)(C)C)C2CC(NCc3ccc(C)cc3)[C@H]1c1cc(O)ccc12 (stereo partly drawn) [Example 84] | 10 to 50 µM | < 10 µM | –
C=CCOC(=O)c1ccc(COc2ccc3c(c2)[C@@H]2C(=O)CC3[C@@H](C(=O)N(C)CC(=O)NCc3c(OC)cc(OC)cc3OC)[C@H]2C(=O)OCC[Si](C)(C)C)cc1 [Example 110] | – | – | inhibition at 20 µM (A549 cells; [3]): 6 to 64%
C=C1CC2c3ccc(O)cc3[C@H]1[C@@H](C(=O)OCCC)[C@@H]2C(=O)OCC[Si](C)(C)C [Example 101] | – | < 10 µM | –
CCCOC(=O)C1C(C(=O)OCC[Si](C)(C)C)C2C[C@@H](Nc3ccccc3)[C@H]1c1cc(O)ccc12 (stereo partly drawn) [Example 115] | – | – | NFkB inh. (NFκB; [2]): * (refers to percent inhibition from 6% to 64%); CXCR1 inh. (CXCR1): * (refers to percent inhibition from 10-36%); CXCR2 2 inh. (CXCR2): * (refers to percent inhibition from 10-36%)
CCCOC(=O)[C@H]1[C@H](C(=O)OCC[Si](C)(C)C)C2C/C(=N\NCCO)[C@H]1c1cc(O)ccc12 [Example 56] | – | < 10 µM | –
CCCCCN(CCCCC)C(=O)[C@@H]1[C@H](C(=O)N(C)CC(=O)NCc2c(OC)cc(OC)cc2OC)C2CC(=O)[C@H]1c1cc(OCc3ccc(C(=O)N4CCC[C@H]4C(=O)N(C)C)cc3)ccc12 [Example 5] | – | 10 to 50 µM | –
CCCOC(=O)[C@H]1[C@H](C(=O)OCC[Si](C)(C)C)C2C/C(=N\OCc3nnsc3Cl)[C@H]1c1cc(O)ccc12 (racemic) [Example 71, 11-(5-Chloro-[1,2,3]thiadiazol-4-ylmethoxyimino)-4-hydroxy-tricyclo[6.2.2.0^2,7]dodeca-2(7),3,5-triene-9,10-dicarboxylic acid 10-propyl ester 9-(2-trimethylsilanyl-ethyl) ester] | 10 to 50 µM | < 10 µM | –
C[Si](C)(C)CCOC(=O)C1C2CC(=O)[C@@H](c3cc(O)ccc32)C1C(=O)OCC[Si](C)(C)C (stereo partly drawn) [Example 113] | – | – | NFkB inh. (NFκB; [2]): * (refers to percent inhibition from 6% to 64%); IC50 (CXCR1): 10 to 50 µM; IC50 (CXCR2): 10 to 50 µM
CCCOC(=O)[C@H]1[C@H](C(=O)OCC[Si](C)(C)C)C2CC3(OCCO3)[C@H]1c1cc(O)ccc12 [Example 97] | 10 to 50 µM | – | inhibition at 20 µM (A549 cells; [3]): 6 to 64%
CCCOC(=O)[C@H]1[C@H](C(=O)OCC[Si](C)(C)C)C2CC(=O)[C@H]1c1ccccc12 [Example 52] | 10 to 50 µM | – | inhibition at 20 µM (A549 cells; [3]): 6 to 64%
CCCOC(=O)[C@H]1[C@H](C(=O)OCC[Si](C)(C)C)C2CC(N(Cc3ccc(C)cc3)C(C)=O)[C@H]1c1cc(O)ccc12 (stereo partly drawn) [Example 91] | 10 to 50 µM | – | –
